Patent US8232313B2 (Georgia Health Sciences University, priority 2003, dated 2012)
Entries after “also recorded” stand apart in the source; their conditions may differ.

Tests used:
[1] = system: IDO; assay: Recall MLR of LN cells from recipients of TDLN DCs, 1MT added to the MLR; conditions: responders from recipients of TDLN DCs
Method: Inguinal LN cells from recipient mice were assayed for functional responsiveness using MLRs stimulated by irradiated C57BL/6 (H-2K^b-positive) splenocytes.

[2] = system: B16F10 melanomas; assay: Established B16F10 melanoma in mice, 1MT with radiation or cyclophosphamide; format: in vivo, mouse
Method: FIGS. 11A-11D. Administration of 1-MT enhances immune-mediated host anti-tumor effect when administered with radiation or cyclophosphamide. Mice were injected subcutaneously (SQ) with 4×10^4 B16F10 cells. […] Control mice received vehicle pellets without drug.
Not unexpected, given that the tumor had already been allowed to create tolerance in the host.

[3] = system: Lewis Lung carcinoma (LLC); conditions: administration of 1-MT; cited from earlier work
[4] = Pilot tissue biodistribution of D and L isomers after DL racemic infusion; format: in vivo, Mice; conditions: DL racemic 10 mg/day, 72 hour infusion
Description: The results noted with spleen are particularly relevant because it is a lymphoid organ, and thus likely to be similar to tumor-draining lymph nodes.

[5] = Comparative plasma pharmacokinetics of the stereoisomers of 1-MT; format: in vivo, mice; conditions: for time to peak plasma concentrations: after PO administration, 50 mg/kg
Method: Comparative pharmacokinetic studies were initiated to characterize the in vivo disposition of the stereoisomers of 1-MT when administered by different routes, to determine the oral bioavailability, and to define the plasma concentrations associated with effective dosing regimens. Studies were conducted in conventional mice after IV, PO and SC doses of 50 mg/kg, and IP doses of 25 mg/kg, 50 mg/kg, and 100 mg/kg. In addition, plasma concentrations of 1-MT were determined in nude mice with implanted timed-release pellets designed to release the DL isomer for 7 days, and the D isomer for 14 days.

[6] = target: IDO (Mus musculus, UniProt P28776); assay: MLR with sorted tumor-draining LN cells (pDCs) as stimulators and BM3 responder T cells; conditions: 250 uM
Chain of IDO (Mus musculus, UniProt P28776) (P28776 whole entry): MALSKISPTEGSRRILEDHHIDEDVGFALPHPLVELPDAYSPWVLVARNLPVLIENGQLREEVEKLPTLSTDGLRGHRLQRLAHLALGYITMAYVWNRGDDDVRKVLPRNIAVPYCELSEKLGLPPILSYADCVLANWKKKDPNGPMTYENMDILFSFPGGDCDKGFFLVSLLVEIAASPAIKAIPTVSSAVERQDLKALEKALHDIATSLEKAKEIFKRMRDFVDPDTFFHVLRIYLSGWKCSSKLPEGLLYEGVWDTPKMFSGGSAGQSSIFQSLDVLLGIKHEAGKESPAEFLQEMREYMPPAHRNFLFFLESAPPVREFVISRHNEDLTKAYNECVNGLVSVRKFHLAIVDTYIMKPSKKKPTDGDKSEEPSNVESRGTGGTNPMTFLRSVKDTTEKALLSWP
Method: T cell activation in MLR. BM3 responder T cells were prepared from spleen by nylon-wool enrichment. Stimulators (sorted DCs or unfractionated TDLN) were mixed with 1×10^5 BM3 responder cells in 200 ul IMDM at the ratios shown in each figure. After 3 days, proliferation was measured by 4-hour thymidine incorporation assay.
MLRs were thus “two-way” reactions. However, the small number of sorted DCs used as stimulators contributed negligible proliferation compared to the large population of TCR-transgenic responder cells. Since the relevant readout was dominant suppression, the two-way MLR design presented no problem in interpretation.
Pooled draining LN cells (4 nodes) were stained and fractionated by 4-color MoFlo cell sorting for the two populations shown in the schematic of FIG. 5B. All other cells were collected in a third fraction. Each fraction was then used as stimulators in MLRs, using 50,000 BM3 T cells as responders. The number of stimulators used in each MLR was adjusted to be the same as would have been present in 50,000 cells of the original LN preparation, based on the measured percentage of each sorted fraction. Thus, 500 cells of the sorted B220^+ CD11c^+ fraction were added per well, and 1500 cells of the CD25^+ CD4^+ fraction, while 48,000 cells of the “all other” fraction were used.

[7] = target: indoleamine 2,3-dioxygenase (IDO) (Homo sapiens, UniProt P14902); assay: Allogeneic mixed-leukocyte reaction (MLR) with IDO-expressing human DCs, T cell proliferation by thymidine incorporation; conditions: 250 uM in culture medium
Chain of indoleamine 2,3-dioxygenase (IDO) (P14902 whole entry): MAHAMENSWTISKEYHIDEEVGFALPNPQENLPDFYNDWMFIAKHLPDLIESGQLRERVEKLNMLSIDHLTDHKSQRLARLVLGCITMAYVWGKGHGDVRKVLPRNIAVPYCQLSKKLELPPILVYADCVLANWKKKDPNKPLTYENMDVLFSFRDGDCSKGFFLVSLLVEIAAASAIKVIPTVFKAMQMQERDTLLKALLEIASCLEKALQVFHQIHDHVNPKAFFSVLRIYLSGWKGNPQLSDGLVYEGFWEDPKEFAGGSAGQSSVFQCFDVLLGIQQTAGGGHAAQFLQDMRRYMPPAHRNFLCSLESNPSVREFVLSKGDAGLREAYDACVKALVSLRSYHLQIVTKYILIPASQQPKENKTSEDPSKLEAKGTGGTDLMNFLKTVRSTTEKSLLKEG
Method: After five days, proliferation was measured by four hour thymidine incorporation assay. “V”-bottom culture wells (Nunc) were used in MLR assays to maximize cell-cell contact.
DCs were used as stimulators in allogeneic mixed-leukocyte reactions (MLRs), with allogeneic lymphocytes as responder cells.

With `Cn1cc(C[C@H](N)C(=O)O)c2ccccc21` (racemic) [1MT, 1-methyl-tryptophan] the “effect of 1MT on suppression in recall MLRs” value [1] was “no effect; also recorded: not restored”, the “tumor growth, 1MT with total-body radiation” value ([2]; DL racemic 20 mg/day plus 500 cGy single dose) was “significantly reduce tumor growth” and the “tumor growth, 1MT with cyclophosphamide” value ([2]; DL racemic 20 mg/day plus cyclophosphamide 150 mg/kg x 1 dose) was “significantly reduce tumor growth”. For the same compound, the “effect of 1MT alone on established tumor” value ([2]; DL racemic form, 20 mg per mouse per day, SQ pellets, from day 7) was “no effect”, the “effect of 1MT over cyclophosphamide alone in RAG1-knockout hosts” value ([2]; immunodeficient (RAG1-knockout) hosts) was “no enhancing effect” and the “effect of 1MT alone, replicated radiation studies” value ([2]; replicate of FIG. 11A design) was “no effect”. The tumor outgrowth [3] was “significantly delayed”.
With `Cn1cc(C[C@@H](N)C(=O)O)c2ccccc21` [1-methyl-D-tryptophan] the “effect of combination with radiation versus radiation alone, replicated studies” value ([2]; replicate of FIG. 11A design) was “enhanced effect over radiation alone”, the “distribution into muscle, D and L isomers” value [4] was “equivalent distribution” and the “distribution into spleen, D and L isomers” value [4] was “equivalent distribution”. The “level in brain, D versus L isomer” value [4] was “lower levels”, the “level in plasma, D versus L isomer” value [4] was “lower levels” and the “accumulation in liver, D versus L isomer” value ([4]; SQ pellets, initial results) was “at least equal, and possibly preferential, accumulation”. The “time to peak plasma concentrations” value [5] was 2 h and the “apparent volume of distribution” value ([5]; relative to L isomer) was “relatively greater”.
In the case of `Cn1cc(C[C@H](N)C(=O)O)c2ccccc21` [L 1-MT, reference compound], the “time to peak plasma concentrations” value [5] is reported as 2 h.
In the case of `N[C@@H](Cc1c[nH]c2ccccc12)C(=O)O` [L-tryptophan], the “suppression by pDCs with excess L-tryptophan” value ([6]; 10x) is reported as “abrogated; also recorded: abrogates suppression”, the “effect of 10x L-tryptophan with pDCs from IDO-knockout hosts” value ([6]; IDO-KO) is reported as “no effect” and the “DC-mediated inhibition of T cell proliferation on addition of supra-physiologic tryptophan” value [7] is reported as “completely reversed”.
